Source: patent US4859664A, “Derivatives of 2,3,4,5,6,7-hexahydro-2,7-methano-1,5-benzoxazonines and -1,4-benzoxazonines, processes for their production and their use as pharmaceuticals” (priority 1986, dated 1989)
Counter-ions that a name gives are not always drawn. Like-named read-outs stand apart in the source and are kept apart here.

Assays:
[1] = assay type: in vivo, male NMRI mice
Method: (§1) […]. They were given a standard feed and water ad libitum up to the commencement of the experiments.
(§2) The test compounds were administered in a volume of 10 ml./kg./body weight per mouse. As carrier, there was used physiological sodium chloride solution or a suspension of 0.5% tragacanth in physiological sodium chloride solution.
2. Development of dependency.
Withdrawal jumps of the mouse (see J. K. Saelens et al., Arch. Int. Pharmacodyn. Ther., 190, 213/1971).
Mice which were dependent upon morphine or other opiates react, when treated with morphine antagonists, with a flight reaction (see F. Huidobro and C. Maggiolo, Arch. Int. Pharmacodyn. Ther., 158, 97/1965); E. L. Way et al., Science, 162, 1290/1968). This flight reaction manifests itself in very vigorous jumping reactions which continue for about 10 minutes. From the number of reacting animals and especially from the jump frequency per animal, there can be deduced the strength of the withdrawal symptoms and thus the degree of dependency upon the test compound. Carrying out of the test:
The test and standard compounds were administered subcutaneously according to the scheme shown in the following Table III in increasing dosages over the course of 2 days.
For the provocation of the withdrawal jumps, the animals received intraperitoneally, 2 hours after the last compound administration, 30 mg./kg. naloxone hydrochloride.
Immediately after the administration of the naloxone, the animals were placed individually in a 5 liter glass beaker. Subsequently, the number of jump movements was recorded during the course of 10 minutes. For evaluation, the number of animals reacting the withdrawal jumps, as well as the average number of jumps per animal, was used.
The animals of the naloxone control group were, up to the administration of naloxone, treated with a 0.9% aqueous solution of sodium chloride (6 animals/dosage group).

[2] = influencing of hexobarbital narcosis; assay type: in vivo, male NMRI mice
Method: as §1, §2
(§3) The experimental results are given as average values with a mean error of the average value (x±S.E.M.). The ED50 values were calculated according to Litchfield and Wilcoxon (J. Pharmacol. Exp. Ther., 96, 99/1949). The compounds were thereby tested in 4 dosages (p≤0.5).
4. Influencing of hexobarbital narcosis.
The test compounds were administered subcutaneously to 5 animals per dosage group. After 30 minutes, 100 mg./kg. hexobarbital sodium was administered intraperitoneally. 2 to 3 minutes after this injection, the animals allowed themselves to be laid on their backs. For each animal, there was measured the time in minutes from the commencement of the back position up to the time when the animals themselves twice successively again assumed the abdominal position.

[3] = influencing of the amphetamine group toxicity; assay type: in vivo, male NMRI mice; settings: amphetamine control group, 15 mg. s.c.
Method: as §1, §2
3. Influencing of the amphetamine group toxicity.
There was investigated the influence of the test compounds on the mortality of amphetamine-treated, aggregated mice. The dosaging of d-amphetamine was 15 mg./kg., which should permit the recognition not only of a synergism but also of an antagonism towards a sympathomimetic compound. Carrying out the experiment:
30 minutes after the subcutaneous administration of the test substance, the animals received subcutaneously 15 mg./kg. of d-amphetamine sulphate. The number of dead animals was recorded after 2, 4 and 7 hours. For the maintenance of the group size, the dead animals were replaced by untreated animals (6 animals/dosage group).

[4] = testing for ataxia (rotating rod test); assay type: in vivo, male NMRI mice
Method: (§4) For the pharmacological investigations described in the following, there were used male NMRI mice with a weight of from 15 to 30 g. The animals were kept under usual laboratory conditions, randomised and subjected to a light-dark change with a 12 hour rhythm. They were given a standard feed and water ad libitum up to the commencement of the experiments.
as §2
There was used the rotating rod test (see F. Gross et al., Schweiz. Med. Wschr., 85, 305/1955).
5 animals per dosage group were trained to keep themselves on a horizontally rotating rod made of synthetic resin (16 rpm). 40, 80 and 120 minutes after the subcutaneous administration of the test compounds, the animals were again tested. From the number of animals which fell off prematurely, there was determined the disturbance of the movement coordination.

[5] = assay type: in vivo, male NMRI mice; remark: listed apart in the source
Method: as §1, §2, §3
(§5) For the significance calculation, there was used Student's t test (see Angewandte Statistik, pub. Stringer Verlag, Berlin, Heidelberg, 242/1983), as well as the range sum test of Mann and Withney (Ann. Math. stat., 50, 1818/1947).
(§6) 1.1. In the acetic acid writhing test (see R. Koster et al., Fed. proc., 18, 412/1954), the typical stretching movements referred to as "writhing", were produced by the intraperitoneal administration of a 0.6% acetic acid solution. 30 minutes previously, the substance to be tested was administered subcutaneously (s.c.) or orally ([…].) to the animals. 3 minutes after administration of the acetic acid solution, the total number of stretching movements in a period of time of 10 minutes was ascertained. From the decrease of the stretching reactions due to the action of the test compound in comparison with non-pretreated control groups, there was determined the percentage inhibition action.

[6] = tonus reduction on striated musculature; assay type: in vivo, male NMRI mice; settings: 5 mg./kg. s.c.
Method: as §4, §2
6. Tonus reduction on striated musculature.
The test used is described by J. P. Chambon et al. (Arzneimittelforschung (Drug Research), 35 (II), (10), 1572/1985).
5 animals per dosage group were placed with their front paws on a horizontal metal rod (diameter 3 mm., length 20 cm.) which was fixed 30 cm. above a laboratory bench. Mice with normal muscle tonus climbed within 5 seconds on to the rod with at least one rear paw.
40, 80 and 120 minutes after the subcutaneous administration of the test compound, the animals were again tested for this ability and the number of incapable animals was recorded.

[7] = assay type: in vivo, male NMRI mice; settings: given without sign
Method: They were given a standard feed and water ad libitum up to the commencement of the experiments.
as §2, §3, §5, §6
Naloxone-antagonistic action in the writhing test.
20 Minutes before the subcutaneous administration of the test compounds, the animals were given 20 mg./kg. naloxone hydrochloride subcutaneously. The further carrying out of the experiments was as described above.

SMILES: COc1cccc(C2(O)CCCCC2CN(C)C)c1 (stereo not shown) [tramadol HCl, reference compound]
- % of reacting animals ([1]; s.c. increasing dosages over 2 days, naloxone i.p., 10 minutes): 83.3%

SMILES: CN1C(=O)NC(=O)C(C)(C2=CCCCC2)C1=O (stereo not shown) [hexobarbital, reference compound]
- period of narcosis ± SEM ([2]; hexobarbital alone, 100 mg/kg ip): 92.4 ± 17.1 min

SMILES: COc1ccc2c3c1O[C@H]1[C@@H](O)C=C[C@H]4[C@@H](C2)N(C)CC[C@@]341 [codeine phosphate, reference compound]
- change with regard to hexabarbital sodium ([2]; 50 mg/kg sc): +51.2 min.
- period of narcosis ± SEM ([2]; 50 mg/kg sc, hexobarbital sodium 100 mg./kg. i.p.): 143.6 ± 10.5 min

SMILES: CC(N)Cc1ccccc1 (stereo not shown) [amphetamine, reference compound]
- % of deceased animals after 2 hrs. [3]: 0%
- % of deceased animals after 4 hrs. [3]: 33%
- % of deceased animals after 7 hrs. [3]: 0%
- % of deceased animals, total [3]: 33.3%

SMILES: CCC1(c2ccccc2)C(=O)NC(=O)NC1=O [phenobarbital, reference compound]
- change of the maintenance time in % compared with the control group, after 40 min. ([4]; 30 mg/kg s.c.): -29%
- change of the maintenance time in % compared with the control group, after 80 min. ([4]; 30 mg/kg s.c.): -21%
- change of the maintenance time in % compared with the control group, after 120 min. ([4]; 30 mg/kg s.c.): -37%
- change of the maintenance time in % compared with the control group, after 40 min. ([4]; 50 mg/kg s.c.): -54%
- change of the maintenance time in % compared with the control group, after 80 min. ([4]; 50 mg/kg s.c.): -46%
- change of the maintenance time in % compared with the control group, after 120 min. ([4]; 50 mg/kg s.c.): -42%

SMILES: CN1CC[C@]23c4c5ccc(O)c4O[C@H]2[C@@H](O)C=C[C@H]3[C@H]1C5.Cl [morphine HCl, reference compound]
- % of reacting animals ([1]; mouse, in vivo): 100%

SMILES: CC(N)Cc1ccccc1.O=S(=O)(O)O (stereo not shown) [amphetamine sulphate, reference compound]
- change with regard to hexabarbital sodium ([2]; 1.0 mg/kg sc): -43.2 min
- period of narcosis ± SEM ([2]; 1.0 mg/kg sc, hexobarbital sodium 100 mg./kg. i.p.): 49.2 ± 14.6 min

SMILES: CC1CCCC2C3CNCCC12Oc1ccccc13 (stereo not drawn) [Example 12, B/C-trans-1,2,3,4,4a,9a-hexahydro-4-methyl-4a,9-(3-azabutano)-xanthene]
- inhibiting action in writhing test ([5]; 25 mg./kg. s.c.): 24%
- inhibiting action in writhing test ([5]; 50 mg./kg. s.c.): 79%

SMILES: CN1C(=O)CN=C(c2ccccc2)c2cc(Cl)ccc21 [diazepam, reference compound]
- change of the maintenance time in % compared with the control group, after 40 min. ([4]; 5 mg/kg s.c.): -87%
- change of the maintenance time in % compared with the control group, after 80 min. ([4]; 5 mg/kg s.c.): -73%
- change of the maintenance time in % compared with the control group, after 120 min. ([4]; 5 mg/kg s.c.): -22%
- relaxing action [6]: 93%

SMILES: COc1cccc(C2(O)CCCCC2CN(C)C)c1 (stereo not shown) [tramadol, 2-[(dimethylamino)-methyl]-1-(3-methoxyphenyl)-cyclohexanol, reference compound]
- change in % (with vs without naloxone) ([7]; 10 mg/kg s.c.): 39.0%
- change in % (with vs without naloxone) ([7]; 20 mg/kg s.c.): 30.7%
